Assay results taken from US5681588A, “Delayed release microtablet of β-phenylpropiophenone derivatives” (priority 1993, dated 1997).
Where a name gives a salt, the structure may show the parent alone.

Assay: Release of other medicinal substances from the same preparation
Type: physicochemical
Conditions: in 1 hour

Row | SMILES | release from the same preparation
1 | CN/C(=N/CCSCc1nc[nH]c1C)NC#N [cimetidine hydrochloride] | 90%
2 | CC(=O)Nc1ccc(O)cc1 [paracetamol] | 90%
